Experimental data as given in publication PMC7822874, “Chemoprotective antimalarials identified through quantitative high-throughput screening of Plasmodium blood and liver stage parasites” (Scientific Reports, 2021).

Tests used:
[1] = test system: Plasmodium falciparum Dd2 asexual blood stage parasites; test: microbe, parasite or virus in culture; design: species or system Plasmodium falciparum Dd2 in human erythrocytes; single determination (one 11-point concentration-response curve); conditions: Plasmodium falciparum, DD2, Erythrocyte, 72 h; read-out: AC50
in vitro = conditions: human, hepg2 cells
HepG2 = conditions: human, hepg2 cells, 48 h

Row | Structure (SMILES) | AC50 [1] [µM] | CC50 at 48 h (in vitro) [µM] | Log AC50 (M) (HepG2)
1 | CCC(CC)c1cc([C@H]2CN3CC[C@H]2C[C@@H]3COC(=O)Nc2ccc(C(C)(C)C)cc2)nc(-c2ccncc2)n1 [NCGC00394559-01] | 2.11 | 43.2 | -4.3643
2 | CCN1CCN(c2cc(C)c3cc(NC(=O)/C=C/c4ccc(OCCC(C)C)cc4)ccc3n2)CC1 [NCGC00103856-01] | 2.11 | 30.6 | -4.5143
3 | CC(C)c1nc(-c2ccc(OC3CCN(C(=O)c4cc(F)ccc4F)C3)cc2)no1 (stereo not shown) [NCGC00441011-01] | – | 34.3 | -4.4643
4 | O=C(Nc1ccc(Oc2cccc(C(F)(F)F)c2)nc1)c1cccs1 [MLS000860613-01] | – | 17.2 | -4.7643
5 | Brc1ccc2[nH]c3c(N4CCc5ccccc5C4)ncnc3c2c1 [MLS000556376-01] | – | 43.2 | -4.3643
6 | COc1cnc(-c2ccccn2)nc1Oc1ccc(C(C)(C)C)cc1 [MLS001165485-01] | – | 38.5 | -4.4143
7 | CCN(CC)CCCNC(=O)c1ccc2c(c1)sc1nc(-c3ccc(C)cc3)cn12 [NCGC00121667-01] | – | 43.2 | -4.3643
8 | CC(C(=O)N1CCCN(c2cc(-c3ccc(Cl)cc3)n[nH]2)CC1)c1ccccc1 (stereo not shown) [NCGC00436178-01] | – | 43.2 | -4.3643
9 | O=C(N/N=C/c1ccccn1)c1ccccc1 [MLS000562399-01] | – | 43.2 | -4.3643
10 | CC(=O)N1CCN(c2cc(-c3noc([C@@H]4CCCN4Cc4ccc(C(F)(F)F)cc4)n3)ccn2)CC1 [NCGC00394931-01] | – | 30.6 | -4.5143
11 | O=C(NC1CCN(c2cc(-c3cccs3)n[nH]2)CC1)c1cccc(OC(F)(F)F)c1 [NCGC00437198-01] | – | 43.2 | -4.3643
12 | Cc1nc(N2CCC(NC(=O)c3cc4ccccc4[nH]3)CC2)cc(C(F)(F)F)n1 [NCGC00455533-01] | – | 34.3 | -4.4643
13 | CCc1nnc(NC(=O)c2cc(Cl)ccn2)s1 [MLS001175292-01] | – | 43.2 | -4.3643
14 | O=C1CCN(Cc2ccc(C(F)(F)F)cc2)CCCC(c2nc(-c3cccnc3)no2)CCN1 (stereo not shown) [NCGC00465921-01] | – | 27.3 | -4.5643
15 | Nc1nc(N)c2c(ccc3[nH]ccc32)n1 [MLS000758537-01] | – | 12.2 | -4.9143
16 | Cc1ccccc1Cn1c(CN2CCC(C(=O)NCCN(C)C)CC2)cc2ccccc21 [NCGC00137638-01] | – | 43.2 | -4.3643
17 | COc1cccc(-c2noc(CCCc3nc(-c4cccnn4)no3)n2)c1 [NCGC00435845-01] | – | 30.6 | -4.5143
18 | N=c1ccn(Cc2cccc(Cl)c2)cc1 [MLS000080111-01] | – | 34.3 | -4.4643
19 | O=c1c2ccccc2nc2n1CCN2Cc1ccc(Cl)cc1 [MLS000107729-01] | – | 43.2 | -4.3643
20 | Cc1cc(C)n(-c2nc3ccccc3c(=O)n2OCC#N)n1 [MLS001215162-01] | – | 12.2 | -4.9143
21 | O=C(Nc1ccc(Oc2cccnc2)cc1)C1CCN(Cc2cc(Cl)ccc2O)CC1 [MLS001072411-01] | – | 30.6 | -4.5143
22 | CCCCOc1ccc(-c2nc(C3CC(=O)N(C4CCCCC4)C3)no2)cc1 (stereo not shown) [NCGC00448051-01] | – | 34.3 | -4.4643
23 | O=C(N1CCCN(c2cc(-c3ccc(Cl)cc3)n[nH]2)CC1)C1(c2ccccc2)CC1 [NCGC00436184-01] | – | 43.2 | -4.3643
24 | O=C(CC1C(=O)NCCN1Cc1cccc(Oc2ccccc2)c1)NCc1ccco1 (stereo not shown) [NCGC00439848-01] | – | 0.00432 | -8.3643
25 | CCCCCCc1cc2cc(-c3nnc(-c4ccc(C)cc4)o3)c(=O)oc2cc1O [NCGC00098410-01] | – | 34.3 | -4.4643
26 | CCC(C(=O)N1CCN(c2cc(-c3cccs3)n[nH]2)CC1)c1ccccc1 (stereo not shown) [NCGC00436744-01] | – | 43.2 | -4.3643

Row | Structure (SMILES) | AC50 [1] [µM] | CC50 at 48 h (in vitro) [µM] | Log AC50 (M) (HepG2)
27 | C[S+](=O)([O-])N1CCC(OC2CCN(C(=O)Nc3cc(F)ccc3F)CC2)CC1 [NCGC00445092-01] | – | 43.2 | -4.3643
28 | CCc1nnc([C@@H]2CC(F)(F)CN2Cc2cccn2C)o1 [NCGC00468656-01] | – | 13.7 | -4.8643
29 | CCN1C(=O)C2(CCN([S+](=O)([O-])c3cc(F)ccc3C)CC2)c2ccccc21 [NCGC00435872-01] | – | 38.5 | -4.4143
30 | COc1ccc2cc1Nc1ccc(cc1)C[C@H](NC(=O)CCc1ccccn1)C(=O)N(C)[C@@H](C(=O)NCc1ccccc1)C2 [NCGC00410291-01] | – | 24.3 | -4.6143
31 | Cc1nn(C)c(C)c1CCC(=O)N1CCC(Cc2noc(-c3ccc(F)cc3)n2)C1 (stereo not shown) [NCGC00443260-01] | – | 30.6 | -4.5143
32 | O=C(c1n[nH]c2c1CCCC2)N1CCC(n2cc(-c3nc(-c4ccccc4)no3)nn2)CC1 [NCGC00454851-01] | – | 30.6 | -4.5143
33 | Cc1cccc(Cn2nnc3c2C(=O)c2ccccc2C3=O)c1 [MLS000594471-01] | – | 43.2 | -4.3643
34 | Cc1ccc(-c2nn(-c3ccccc3)cc2CSC(=N)N)cc1 [MLS000572993-01] | – | 43.2 | -4.3643
35 | OC[C@H]1CCN(Cc2ccc(-c3cccc(Cl)c3Cl)o2)C[C@@H]1O [NCGC00438915-01] | – | 30.6 | -4.5143
36 | O=C(c1ccco1)N1CCCN(c2cc(-c3ccc(Br)cc3)n[nH]2)CC1 [NCGC00436196-01] | – | 43.2 | -4.3643
37 | Cc1cc(=O)n(CC(=O)Nc2cccc(C(F)(F)F)c2)c(N2CCC(C)CC2)n1 [NCGC00432189-01] | – | 30.6 | -4.5143
38 | Cc1nc(-c2ccc(Cl)cc2)sc1CCNC(=O)c1ccco1 [NCGC00131874-01] | – | 6.85 | -5.1643
39 | COc1cc(NC(=O)Cn2c(N(C)Cc3ccccc3)nc(C)cc2=O)cc(OC)c1 [NCGC00432301-01] | – | 43.2 | -4.3643
40 | O=C(Nc1cccc(C(F)(F)F)c1)C1CCN([S+](=O)([O-])c2cccc3nsnc23)CC1 [NCGC00108239-01] | – | 43.2 | -4.3643
41 | Cc1ccc(NC(=O)CSc2n[nH]c(-c3ccccn3)n2)cc1 [MLS001223214-01] | – | 24.3 | -4.6143
42 | SC(=Nc1ccncc1)NCc1ccccc1 [MLS001230114-01] | – | 27.3 | -4.5643
43 | CCOC(=O)c1ccc(-c2ccc(/C=C(\C#N)c3nc4cc(C)ccc4[nH]3)o2)cc1 [NCGC00098928-01] | – | 43.2 | -4.3643
44 | COc1ccc(C(=O)N2CCC(n3cc(-c4nc(-c5ccccc5)no4)nn3)C2)cc1 (stereo not shown) [NCGC00455125-01] | – | 43.2 | -4.3643
45 | Fc1ccc(CN2CC[C@H](c3nc4ccc(C(F)(F)F)cc4[nH]3)C2)cc1F [NCGC00396703-01] | – | 49.8 | -4.3028
46 | CCOC(=O)c1ccc(N2C(=O)c3[nH]nc(-c4ccc(OC)cc4)c3C2c2cccc(O)c2)cc1 (stereo not shown) [NCGC00108527-01] | – | 43.2 | -4.3643
47 | COc1ccc(CNc2ncnc3c2[nH]c2ccccc23)cc1 [MLS000768346-01] | – | 43.2 | -4.3643
48 | Cc1nc(C)c(C(=O)N2CC(Oc3ccc(-c4noc(-c5ccccc5)n4)cc3)C2)s1 [NCGC00458037-01] | – | 30.6 | -4.5143
49 | CC(=O)c1cn(CCOc2ccc(F)cc2)c2ccccc12 [MLS001205469-01] | – | 43.2 | -4.3643
50 | O=C(C[C@@H]1CCNC[C@@H]1Cc1cc(CC2CCCCC2)on1)NCc1ccccc1 [NCGC00400728-01] | – | 49.8 | -4.3028
51 | CCc1ccc(NC(=O)C2CCN(c3cc(C(F)(F)F)ncn3)CC2)cc1 [NCGC00455558-01] | – | 34.3 | -4.4643
52 | OC(CNCCc1ccccc1)COc1ccc(OCC(O)CNCCc2ccccc2)cc1 (stereo not shown) [MLS000769724-01] | – | 43.2 | -4.3643
